Measured values from patent US5369098A, “Hydroxymethyl cyclobutyl purines” (E. R. Squibb & Sons, Inc., priority 1989, dated 1994).
pIC50: −log10 of the molar value.

Experiments:
Assay type in all cases: cell-based
[1] = test system: HIV (human immunodeficiency virus, strain HTLV-IIIB); assay: HIV antiviral assay (reduction of viral cytopathic effect in CEM cells, XTT-PMS); conditions: Human immunodeficiency virus 1, IIIB, CCRF-CEM, 168 h, minimum drug concentration that inhibits CPE by 50%, 7 days at 37° C., read-out: ID50 for HIV
Method: Assays were performed in cell culture systems to determine the concentrations of compounds that are effective in preventing several kinds of viral infections. HSV-1 (herpes simplex virus type 1, strain Schooler), HSV-2 (herpes simplex virus type 2, strain 186), VZV (varicella zoster virus, strain ELLEN), MuLV (murine leukemia virus, strain CAS), HIV (human immunodeficiency virus, strain HTLV-IIIB). Cell Culture Assays: HIV antiviral assay: Suspensions of CEM cells (P. L. Nara, et. al., Nature 332, 469(1988)) were infected at a multiplicity of infection of 0.12 TCID50 /cell with HIV (strain HTLV-III B). […] Following incubation, viable cell numbers were counted in each well using a colorimetric assay following incubation of cells with XTT-PMS solution (XTT tetrazolium reagent plus phenazine methosulfate, PMS). Percent reduction of viral cytopathic effect (CPE) in drug treated compared to untreated virus infected cells, and percent reduction of cell viability in drug treated uninfected cells compared to untreated controls were calculated and plotted versus the drug concentrations tested. […]

[2] = test system: HSV-2 (herpes simplex virus type 2, strain 186); assay: HSV-2 antiviral assay (plaque reduction in WI-38 cell monolayers); conditions: Human alphaherpesvirus 2, 96 h; WI-38 cells; plaque reduction of at least 50%; 4 days at 37° C.; read-out: ID50 for HSV-2
Method: (§1) Assays were performed in cell culture systems to determine the concentrations of compounds that are effective in preventing several kinds of viral infections. HSV-1 (herpes simplex virus type 1, strain Schooler), HSV-2 (herpes simplex virus type 2, strain 186), VZV (varicella zoster virus, strain ELLEN), MuLV (murine leukemia virus, strain CAS), HIV (human immunodeficiency virus, strain HTLV-IIIB). Cell Culture Assays: HSV-1, HSV-2, and VZV antiviral assays: Virus was adsorbed to WI-38 cell culture monolayers in 6 well culture plates (Costar, Cambridge, Mass.) for 1 hour prior to addition of maintenance medium containing duplicate dilutions of the test compound. Inhibition of plaque development was evaluated on fixed and stained monolayers after 4 days incubation at 37° C. for HSV-1 and HSV-2 and after 6-7 days incubation at 37° C. for VZV. ID50 values were determined from the drug concentration which conferred at least a 50% plaque reduction compared to virus controls.

[3] = test system: VZV (varicella zoster virus, strain ELLEN); assay: VZV antiviral assay (plaque reduction in WI-38 cell monolayers); conditions: Human alphaherpesvirus 3; WI-38 cells; plaque reduction of at least 50%; 6-7 days at 37° C.; read-out: ID50 for VZV
Method: as §1

[4] = test system: HSV-1 (herpes simplex virus type 1, strain Schooler); assay: HSV-1 antiviral assay (plaque reduction in WI-38 cell monolayers); conditions: Human alphaherpesvirus 1, 96 h; WI-38 cells; plaque reduction of at least 50%; 4 days at 37° C.; read-out: ID50 for HSV-1
Method: as §1

[5] = Reduction of viability of uninfected CEM cells (XTT-PMS); conditions: human, footnotes *** and **** to HIV, 7 days, read-out: Minimum cytotoxic drug concentration that reduces cell viability by 50%
Method: HIV antiviral assay: Suspensions of CEM cells (P. L. Nara, et. al., Nature 332, 469(1988)) were infected at a multiplicity of infection of 0.12 TCID50 /cell with HIV (strain HTLV-III B). After adsorption for 1-2 hours at 37° C., infected cells were diluted in growth medium (RPMI 1640 containing the antibiotics penicillin plus streptomycin and 10% fetal calf serum) to give a final cell concentration of 1×10^4 viable cells/culture well in the presence of serial dilutions of the test compound, starting at 100 μg/ml. Triplicate samples at each drug concentration were used. Cultures of uninfected CEM cells were similarly prepared and incubated with serial dilutions of test compound in duplicate. All assays were performed in 96 well disposable cell culture plates. Untreated (infected and uninfected) cells were included as controls. […] Following incubation, viable cell numbers were counted in each well using a colorimetric assay following incubation of cells with XTT-PMS solution (XTT tetrazolium reagent plus phenazine methosulfate, PMS). Percent reduction of viral cytopathic effect (CPE) in drug treated compared to untreated virus infected cells, and percent reduction of cell viability in drug treated uninfected cells compared to untreated controls were calculated and plotted versus the drug concentrations tested. […]

[6] = test system: MuLV (murine leukemia virus, strain CAS); assay: MuLV antiviral assay (syncytial plaques, SC-1 cells / XC cells); conditions: SC1, XC cell overlay, syncytial plaques counted, read-out: ID50 for MuLV
Method: Assays were performed in cell culture systems to determine the concentrations of compounds that are effective in preventing several kinds of viral infections.
HSV-1 (herpes simplex virus type 1, strain Schooler), HSV-2 (herpes simplex virus type 2, strain 186), VZV (varicella zoster virus, strain ELLEN), MuLV (murine leukemia virus, strain CAS), HIV (human immunodeficiency virus, strain HTLV-IIIB). Cell Culture Assays:
MuLV antiviral assay: Antiviral assays using MuLV were performed with some modification, as described by Rowe et al. and Shannon et al.. SC-1 cells were planted at approximately 2×10^5 cell per well in 6 well plates. After overnight incubation at 37° C., the cell cultures were sensitized with DEAE-Dextran for one hour at 37° C., rinsed and inoculated with MuLV. Cultures were re-fed with growth medium containing different concentrations of the test compound. After three more days at 37° C., cultures were re-fed with fresh medium plus test compounds and incubated at 37° C. for an additional 3 days. Cultures were then washed to remove medium, ultraviolet light irradiated, and planted with approximately 5×10^5 XC cells per well in cell growth medium containing the appropriate concentration of the test compound. […] Finally the cultures were rinsed, stained and syncytial plaques were counted. […]

[7] = Cytotoxicity by microscopic examination of the cell sheet; conditions: human, WI-38 cells

pIC50 [1]	pIC50 [6]	Compound	pIC50 [2]	pIC50 [3]	pIC50 [4]	CC50 at 168 h [5]	MCC at 96 h ([7]; footnote * to HSV-1 and HSV-2, 4 days, read-out: Cytotoxic concentration by microscopic examination of the cell sheet (HSV-1 and HSV-2 assays))	MCC ([7]; footnote ** to VZV, 6-7 days, read-out: Cytotoxic concentration by microscopic examination of the cell sheet (VZV assay))
3.64	3.97 to 4.37	Nc1nc2c(ncn2[C@H]2C[C@@H](CO)C2)c(=O)[nH]1 [Example 1, (cis)-2-amino-1,9-dihydro-9-[3-(hydroxymethyl)cyclobutyl]-6H-purin-6-one]	4.68 to 5.05	4.68	4.68 to 5.05	> 425 µM		
3.52	4.34 to 4.64	Nc1ncnc2c1ncn2[C@H]1C[C@@H](CO)C1 [Example 2, (cis)-3-(6-Amino-9H-purin-9-yl)cyclobutanemethanol]	3.34	< 3.94	3.34	> 456 µM	456 µM	228 µM
